Results: patent publication US9073876B2, “Flap modulators” (JANSSEN PHARMACEUTICA NV, priority 2013, dated 2015)
pIC50, pKi: −log10 of the molar value. Where a name gives a salt, the structure may show the parent alone.

Columns and labels:
[1] = biological target: human FLAP (Homo sapiens (Human), UniProt P20292); assay: FLAP binding assay (HTRF); conditions: human FLAP-containing membranes, HTRF format; average of two assay plates, duplicates; read-out: FLAP Binding wild type HTRF Ki
Outline: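 Binding of compounds to FLAP read out as HTRF ratio. Values are the mean of two assay plates, each sample run in duplicate per plate.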

[2] = tested on: leukotriene pathway in human whole blood (LTB4 levels); assay: Human whole blood assay (LTB4); format: cell-based; conditions: human whole blood diluted 1:1 in RPMI, stimulated with calcium ionophore A23187; single replicate
Outline: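 Blood (heparin) diluted 1:1 RPMI; compound pre-incubation 15 min, 37° Celsius; A23187 7 μg/mL, 30 min, 37° Celsius; plasma LTB4 by commercial kit. IC50 via 4-parameter equation.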

Sequence of human FLAP (P20292 whole entry): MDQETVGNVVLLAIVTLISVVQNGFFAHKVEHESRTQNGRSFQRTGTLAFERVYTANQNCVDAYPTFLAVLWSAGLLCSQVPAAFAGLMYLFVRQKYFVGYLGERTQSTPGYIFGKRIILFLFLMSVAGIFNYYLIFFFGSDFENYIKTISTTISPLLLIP

Row | SMILES | pKi [1] | pIC50 [2]
1 | N#Cc1cccc(Oc2c(C3CCC3)ccc(-c3cnc(N)cn3)c2F)n1 [Example 111, 6-[3-(5-Aminopyrazin-2-yl)-6-cyclobutyl-2-fluorophenoxy]pyridine-2-carbonitrile] | 8.72 | 7.18
2 | Nc1cnc(-c2ccc(C3CCC3)c(Oc3ccc(S(F)(F)(F)(F)F)cc3)c2F)cn1 [Example 115, 5-{4-Cyclobutyl-2-fluoro-3-[4-(pentafluoro-lambda~6~- sulfanyl)phenoxy]phenyl}pyrazin-2-amine] | 6.53 | 5.96
3 | Nc1cnc(-c2ccc(C3CCC3)c(Oc3ncccc3Cl)c2F)cn1 [Example 122, 5-{3-[(3-Chloropyridin-2-yl)oxy]-4-cyclobutyl-2-fluorophenyl}pyrazin-2-amine] | 8.40 | 6.34
4 | Nc1cnc(-c2ccc(C3CCC3)c(Oc3ccnc(C(F)(F)F)n3)c2F)cn1 [Example 124, 5-(4-Cyclobutyl-2-fluoro-3-{[2-(trifluoromethyl)pyrimidin-4-yl]oxy}phenyl)pyrazin-2-amine] | 8.52 | 6.92
5 | COc1cccnc1Oc1c(C2CCC2)ccc(-c2cnc(N)cn2)c1F [Example 129, 5-{4-Cyclobutyl-2-fluoro-3-[(3-methoxypyridin-2-yl)oxy]phenyl}pyrazin-2-amine] | 6.92 | 6.55
6 | Nc1cnc(-c2ccc(C3CCC3)c(Oc3ccnc(N)n3)c2F)cn1 [Example 130, 4-[3-(5-Aminopyrazin-2-yl)-6-cyclobutyl-2-fluorophenoxy]pyrimidin-2-amine] | 8.43 | 7.08
7 | Nc1cnc(-c2ccc(C3CCC3)c(Oc3nccc(C(F)(F)F)n3)c2F)cn1 [Example 131, 5-(4-Cyclobutyl-2-fluoro-3-{[4-(trifluoromethyl)pyrimidin-2-yl]oxy}phenyl)pyrazin-2-amine] | 8.25 | 7.17
8 | Nc1cnc(-c2ccc(C3CCC3)c(Oc3ccnc(Cl)n3)c2F)cn1 [Example 137, 5-{3-[(2-Chloropyrimidin-4-yl)oxy]-4-cyclobutyl-2-fluorophenyl}pyrazin-2-amine] | 8.43 | 7.29
9 | CN(C)c1cc(Oc2c(C3CCC3)ccc(-c3cnc(N)cn3)c2F)nc(C(F)(F)F)n1 [Example 139, 6-[3-(5-Aminopyrazin-2-yl)-6-cyclobutyl-2-fluorophenoxy]-N,N-dimethyl-2-(trifluoromethyl)pyrimidin-4-amine] | 8.41 | 7.31
10 | COCc1cc(Oc2c(C3CCC3)ccc(-c3cnc(N)cn3)c2F)nc(N)n1 [Example 142, 4-[3-(5-Aminopyrazin-2-yl)-6-cyclobutyl-2-fluorophenoxy]-6-(methoxymethyl)pyrimidin-2-amine] | 8.77 | 7.73
11 | Nc1cnc(-c2ccc(C3CCC3)c(Oc3ccnc(-c4ccccc4)n3)c2F)cn1 [Example 144, 5-{4-Cyclobutyl-2-fluoro-3-[(2-phenylpyrimidin-4-yl)oxy]phenyl}pyrazin-2-amine] | 8.96 | 7.65
12 | Nc1cnc(-c2ccc(C3CCC3)c(Oc3cc(-c4ccccc4)ncn3)c2F)cn1 [Example 145, 5-{4-Cyclobutyl-2-fluoro-3-[(6-phenylpyrimidin-4-yl)oxy]phenyl}pyrazin-2-amine] | 8.27 | 6.75
13 | CC(C)c1cc(Oc2c(C3CCC3)ccc(-c3cnc(N)cn3)c2F)ncn1 [Example 147, 5-(4-Cyclobutyl-2-fluoro-3-{[6-(1-methylethyl)pyrimidin-4-yl]oxy}phenyl)pyrazin-2-amine] | 8.19 | 6.73
14 | NCCNc1nccc(Oc2c(C3CCC3)ccc(-c3cnc(N)cn3)c2F)n1 [Example 150, N-{4-[3-(5-Aminopyrazin-2-yl)-6-cyclobutyl-2-fluorophenoxy]pyrimidin-2-yl}ethane-1,2-diamine] | 6.75 | 5.45

The next lines start with the values.

Row | pKi [1] | pIC50 [2] | SMILES
15 | 7.08 | 6.42 | Nc1cnc(-c2ccc(C3CCC3)c(Oc3ccc(C(F)(F)F)nn3)c2F)cn1 [Example 106, 5-(4-Cyclobutyl-2-fluoro-3-{[6-(trifluoromethyl)pyridazin-3-yl]oxy}phenyl)pyrazin-2-amine]
16 | 8.16 | 6.75 | COC(=O)c1ccc(Oc2c(C3CCC3)ccc(-c3cnc(N)cn3)c2F)nc1 [Example 107, Methyl 6-[3-(5-aminopyrazin-2-yl)-6-cyclobutyl-2-fluorophenoxy]pyridine-3-carboxylate]
17 | 7.61 | 5.88 | N#Cc1ccc(Oc2c(C3CCC3)ccc(-c3cnc(N)cn3)c2F)cn1 [Example 108, 5-[3-(5-Aminopyrazin-2-yl)-6-cyclobutyl-2-fluorophenoxy]pyridine-2-carbonitrile]
18 | 8.05 | 6.51 | N#Cc1cc(Oc2c(C3CCC3)ccc(-c3cnc(N)cn3)c2F)ccn1 [Example 109, 4-[3-(5-Aminopyrazin-2-yl)-6-cyclobutyl-2-fluorophenoxy]pyridine-2-carbonitrile]
19 | 8.62 | 7.28 | N#Cc1cccnc1Oc1c(C2CCC2)ccc(-c2cnc(N)cn2)c1F [Example 110, 2-[3-(5-Aminopyrazin-2-yl)-6-cyclobutyl-2-fluorophenoxy]pyridine-3-carbonitrile]
20 | 7.83 | 6.74 | N#Cc1ncccc1Oc1c(C2CCC2)ccc(-c2cnc(N)cn2)c1F [Example 112, 3-[3-(5-Aminopyrazin-2-yl)-6-cyclobutyl-2-fluorophenoxy]pyridine-2-carbonitrile]
21 | 7.57 | 6.22 | Nc1cnc(-c2ccc(C3CCC3)c(Oc3ccc(C(F)(F)F)cn3)c2F)cn1 [Example 113, 5-(4-Cyclobutyl-2-fluoro-3-{[5-(trifluoromethyl)pyridin-2-yl]oxy}phenyl)pyrazin-2-amine]
22 | 7.98 | 7.18 | Nc1cnc(-c2ccc(C3CCC3)c(Oc3ncccn3)c2F)cn1 [Example 118, 5-[4-Cyclobutyl-2-fluoro-3-(pyrimidin-2-yloxy)phenyl]pyrazin-2-amine]
23 | 8.22 | 7.58 | Nc1cnc(-c2ccc(C3CCC3)c(Oc3nccc(N)n3)c2F)cn1 [Example 119, 2-[3-(5-Aminopyrazin-2-yl)-6-cyclobutyl-2-fluorophenoxy]pyrimidin-4-amine]
24 | 8.15 | 5.35 | CS(=O)(=O)c1ccc(Oc2c(C3CCC3)ccc(-c3cnc(N)cn3)c2F)c(Cl)c1 [Example 123, 5-{3-[2-Chloro-4-(methylsulfonyl)phenoxy]-4-cyclobutyl-2-fluorophenyl}pyrazin-2-amine]
25 | 7.97 | 6.39 | Cc1cc(Oc2c(C3CCC3)ccc(-c3cnc(N)cn3)c2F)ccc1S(C)(=O)=O [Example 126, 5-{4-Cyclobutyl-2-fluoro-3-[3-methyl-4-(methylsulfonyl)phenoxy]phenyl}pyrazin-2-amine]
26 | 7.77 | 6.88 | CS(=O)(=O)c1ccc(Oc2c(C3CCC3)ccc(-c3cnc(N)cn3)c2F)c(C#N)c1 [Example 132, 2-[3-(5-Aminopyrazin-2-yl)-6-cyclobutyl-2-fluorophenoxy]-5-(methylsulfonyl)benzonitrile]
27 | 7.99 | 7.10 | CS(=O)(=O)c1ccc(Oc2c(C3CCC3)ccc(-c3cnc(N)cn3)c2F)cc1C(F)(F)F [Example 133, 5-{4-Cyclobutyl-2-fluoro-3-[4-(methylsulfonyl)-3-(trifluoro-methyl)phenoxy]phenyl}pyrazin-2-amine]
28 | 8.21 | 7.40 | Cc1nccc(Oc2c(C3CCC3)ccc(-c3cnc(N)cn3)c2F)n1 [Example 134, 5-{4-Cyclobutyl-2-fluoro-3-[(2-methylpyrimidin-4-yl)oxy]phenyl}pyrazin-2-amine]
29 | 8.46 | 7.34 | Nc1cnc(-c2ccc(C3CCC3)c(Oc3cc(N)ncn3)c2F)cn1 [Example 136, 6-[3-(5-Aminopyrazin-2-yl)-6-cyclobutyl-2-fluorophenoxy]pyrimidin-4-amine]
30 | 8.26 | 7.15 | Nc1cnc(-c2ccc(C3CCC3)c(Oc3cc(N4CCC4)ncn3)c2F)cn1 [Example 138, 5-{3-[(6-Azetidin-1-ylpyrimidin-4-yl)oxy]-4-cyclobutyl-2-fluorophenyl}pyrazin-2-amine trifluoroacetate salt]
31 | 8.89 | 7.93 | Cc1nc(N)cc(Oc2c(C3CCC3)ccc(-c3cnc(N)cn3)c2F)n1 [Example 140, 6-[3-(5-Aminopyrazin-2-yl)-6-cyclobutyl-2-fluorophenoxy]-2-methylpyrimidin-4-amine trifluoroacetate salt]
32 | 8.30 | 7.23 | Nc1cnc(-c2ccc(C3CCC3)c(Oc3cc(C4CC4)ncn3)c2F)cn1 [Example 141, 5-{4-Cyclobutyl-3-[(6-cyclopropylpyrimidin-4-yl)oxy]-2-fluorophenyl}pyrazin-2-amine]
33 | 8.54 | 7.42 | Nc1cnc(-c2ccc(C3CCC3)c(Oc3cc(Cl)nc(N)n3)c2F)cn1 [Example 143, 4-[3-(5-Aminopyrazin-2-yl)-6-cyclobutyl-2-fluorophenoxy]-6-chloropyrimidin-2-amine]
34 | 9.40 | 8.35 | Nc1cnc(-c2ccc(C3CCC3)c(Oc3cc(N)nc(Cc4ccccc4)n3)c2F)cn1 [Example 146, 6-[3-(5-Aminopyrazin-2-yl)-6-cyclobutyl-2-fluorophenoxy]-2-benzylpyrimidin-4-amine]
35 | 8.89 | 6.95 | CC(C)(C)OC(=O)NCCNc1ccnc(Oc2c(C3CCC3)ccc(-c3cnc(N)cn3)c2F)n1 [Example 149, tert-Butyl [2-({2-[3-(5-aminopyrazin-2-yl)-6-cyclobutyl-2-fluorophenoxy]pyrimidin-4-yl}amino)ethyl]carbamate]
